ChEMBL document CHEMBL5236583, “Semisynthesis, biological activities, and mechanism studies of Mannich base analogues of magnolol/honokiol as potential α-glucosidase inhibitors” (Bioorg Med Chem, 2022)
The source made the active and inactive calls. No cut-off for these calls is given here.

Legend:
[1] = target: Maltase-glucoamylase (Homo sapiens) (UniProt O43451); assay: Inhibition of alpha-glucosidase (unknown origin) using pNPG as substrate at 64 uM preincubated with enzyme for 15 mins followed by substrate addition and measured after 10 mins by microplate reader analysis; settings: time 25.0 min
Sequence of Maltase-glucoamylase (Homo sapiens) (O43451 whole entry, looked up): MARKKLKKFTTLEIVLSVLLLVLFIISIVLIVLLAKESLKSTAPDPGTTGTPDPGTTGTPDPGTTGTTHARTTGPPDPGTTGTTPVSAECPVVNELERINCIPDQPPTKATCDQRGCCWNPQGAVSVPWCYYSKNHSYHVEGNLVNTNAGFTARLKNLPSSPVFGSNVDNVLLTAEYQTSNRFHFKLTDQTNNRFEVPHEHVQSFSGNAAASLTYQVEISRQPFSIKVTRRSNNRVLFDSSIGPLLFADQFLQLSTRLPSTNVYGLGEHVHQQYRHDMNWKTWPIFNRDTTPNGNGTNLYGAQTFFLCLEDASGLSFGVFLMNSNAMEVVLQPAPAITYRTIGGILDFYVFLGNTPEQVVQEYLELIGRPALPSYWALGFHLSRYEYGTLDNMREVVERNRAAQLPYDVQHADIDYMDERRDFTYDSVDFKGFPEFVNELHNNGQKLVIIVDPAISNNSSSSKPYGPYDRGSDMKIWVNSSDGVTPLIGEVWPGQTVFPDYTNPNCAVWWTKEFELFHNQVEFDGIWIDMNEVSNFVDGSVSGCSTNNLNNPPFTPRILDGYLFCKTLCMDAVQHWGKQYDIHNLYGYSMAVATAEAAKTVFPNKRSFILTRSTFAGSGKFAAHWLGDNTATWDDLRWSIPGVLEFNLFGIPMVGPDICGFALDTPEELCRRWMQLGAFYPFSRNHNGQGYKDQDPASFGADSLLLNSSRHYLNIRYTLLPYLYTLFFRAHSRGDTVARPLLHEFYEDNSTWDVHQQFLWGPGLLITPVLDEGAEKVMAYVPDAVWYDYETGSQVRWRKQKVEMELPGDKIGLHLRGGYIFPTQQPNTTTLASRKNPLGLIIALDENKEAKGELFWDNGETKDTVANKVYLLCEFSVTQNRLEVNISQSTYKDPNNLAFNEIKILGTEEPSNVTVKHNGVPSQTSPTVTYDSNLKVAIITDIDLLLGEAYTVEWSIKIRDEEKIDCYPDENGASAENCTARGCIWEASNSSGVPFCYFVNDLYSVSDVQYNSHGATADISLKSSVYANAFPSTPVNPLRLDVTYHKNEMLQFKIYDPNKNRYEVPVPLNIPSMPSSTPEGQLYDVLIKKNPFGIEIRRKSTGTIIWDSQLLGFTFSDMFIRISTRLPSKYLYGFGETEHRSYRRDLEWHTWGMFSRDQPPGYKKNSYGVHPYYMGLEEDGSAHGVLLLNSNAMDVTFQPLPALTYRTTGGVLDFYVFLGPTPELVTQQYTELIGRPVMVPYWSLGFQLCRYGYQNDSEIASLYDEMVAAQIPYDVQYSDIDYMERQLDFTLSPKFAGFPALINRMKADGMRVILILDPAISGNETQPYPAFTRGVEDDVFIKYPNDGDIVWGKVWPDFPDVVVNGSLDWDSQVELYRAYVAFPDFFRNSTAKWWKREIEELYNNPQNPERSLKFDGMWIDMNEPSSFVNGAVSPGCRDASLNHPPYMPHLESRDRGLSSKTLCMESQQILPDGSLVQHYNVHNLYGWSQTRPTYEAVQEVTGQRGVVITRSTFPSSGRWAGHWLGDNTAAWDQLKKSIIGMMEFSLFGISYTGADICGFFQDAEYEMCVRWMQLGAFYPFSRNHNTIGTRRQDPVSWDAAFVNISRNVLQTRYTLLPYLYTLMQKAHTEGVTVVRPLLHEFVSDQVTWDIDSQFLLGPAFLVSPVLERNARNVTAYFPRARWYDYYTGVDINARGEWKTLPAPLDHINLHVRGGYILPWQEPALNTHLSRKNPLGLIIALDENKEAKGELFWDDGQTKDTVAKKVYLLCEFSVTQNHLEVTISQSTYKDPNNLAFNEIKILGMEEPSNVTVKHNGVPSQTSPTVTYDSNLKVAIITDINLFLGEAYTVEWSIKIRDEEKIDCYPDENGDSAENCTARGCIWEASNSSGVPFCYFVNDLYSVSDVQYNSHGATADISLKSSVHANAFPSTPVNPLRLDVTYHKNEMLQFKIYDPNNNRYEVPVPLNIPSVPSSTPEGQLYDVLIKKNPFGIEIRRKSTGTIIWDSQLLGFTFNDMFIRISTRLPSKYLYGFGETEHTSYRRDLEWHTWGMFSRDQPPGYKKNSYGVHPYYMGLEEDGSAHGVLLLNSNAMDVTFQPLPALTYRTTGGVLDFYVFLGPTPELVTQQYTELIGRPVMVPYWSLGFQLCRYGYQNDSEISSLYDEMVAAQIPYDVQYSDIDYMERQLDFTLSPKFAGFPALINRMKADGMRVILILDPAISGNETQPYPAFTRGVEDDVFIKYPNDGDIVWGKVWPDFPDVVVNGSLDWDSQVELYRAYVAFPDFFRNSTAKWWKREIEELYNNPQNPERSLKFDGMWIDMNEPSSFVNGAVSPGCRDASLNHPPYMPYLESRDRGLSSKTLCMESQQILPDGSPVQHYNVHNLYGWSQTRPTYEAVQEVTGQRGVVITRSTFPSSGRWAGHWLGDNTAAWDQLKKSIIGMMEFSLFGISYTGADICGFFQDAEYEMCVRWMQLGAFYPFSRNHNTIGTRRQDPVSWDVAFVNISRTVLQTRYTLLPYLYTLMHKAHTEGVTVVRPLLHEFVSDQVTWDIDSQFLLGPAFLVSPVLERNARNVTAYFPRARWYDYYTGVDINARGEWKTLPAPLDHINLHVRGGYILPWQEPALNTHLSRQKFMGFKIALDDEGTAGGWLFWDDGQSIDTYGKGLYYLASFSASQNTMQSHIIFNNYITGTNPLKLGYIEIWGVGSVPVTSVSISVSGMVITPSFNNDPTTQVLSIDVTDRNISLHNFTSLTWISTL

[2] = target: Maltase-glucoamylase (Homo sapiens) (UniProt O43451); assay: Reversible inhibition of alpha-glucosidase (unknown origin) using pNPG as substrate assessed as reduction in velocity of enzyme-catalyzed reaction
[3] = target: Maltase-glucoamylase (Homo sapiens) (UniProt O43451); assay: Non-competitive inhibition of alpha-glucosidase (unknown origin) using pNPG as substrate preincubated with enzyme for 15 mins followed by substrate addition and measured for 15 mins by Lineweaver-Burk plot analysis; settings: time 30.0 min
[4] = Cytotoxicity against human L02 cells assessed as cell viability at 64 uM by CCK8 assay; format: toxicity, cell-based; settings: read-out: Activity
[5] = target: Maltase-glucoamylase (Homo sapiens) (UniProt O43451); assay: Competitive inhibition of alpha-glucosidase (unknown origin) using pNPG as substrate preincubated with enzyme for 15 mins followed by substrate addition and measured for 15 mins by Lineweaver-Burk plot analysis; settings: time 30.0 min

SMILES | inhibition [1] [%] | also measured
C=CCc1cc(CN(CC(C)C)CC(C)C)c(O)c(-c2cc(CC=C)c(O)c(CN(CC(C)C)CC(C)C)c2)c1 | 6.2 | 
C=CCc1cc(-c2cc(CC=C)c(O)c(C(c3ccc(OC)cc3)N3CCC(C)CC3)c2)c(O)c(C(c2ccc(OC)cc2)N2CCC(C)CC2)c1 (stereo not drawn) | 27.8 | 
C=CCc1ccc(O)c(-c2cc(CC=C)cc(CN(C)C(C)C)c2O)c1 | 3.4 | 
C=CCc1cc(-c2ccc(O)c(CC=C)c2)c(O)c(C(c2ccccc2)N2CCC(C)CC2)c1 (stereo not drawn) | 25.8 | 
C=CCc1cc(-c2ccc(O)c(CC=C)c2)c(O)c(C(c2cc(OC)c(OC)c(OC)c2)N2CCCC2)c1 (stereo not drawn) | 43 | 
C=CCc1cc(CN2CCC(C)CC2)c(O)c(-c2cc(CC=C)c(O)c(CN3CCC(C)CC3)c2)c1 | 6.5 | 
C=CCc1cc(-c2ccc(O)c(CC=C)c2)c(O)c(C(c2cc(Cl)cc(Cl)c2)N2CCOCC2)c1 (stereo not drawn) | 92.6 | inhibition [2]: Active; inhibition [3]: Active; viability at 64 µM [4]: > 80%
C=CCc1ccc(O)c(-c2cc(CC=C)cc(CN(C)c3ccccc3)c2O)c1 | 15.5 | 
C=CCc1ccc(O)c(-c2cc(CC=C)cc(CN3CCN(C)CC3)c2O)c1 | 9.4 | 
C=CCc1cc(CN(C(C)C)C(C)C)c(O)c(-c2cc(CC=C)c(O)c(CN(C(C)C)C(C)C)c2)c1 | 7.2 | 
C=CCc1ccc(O)c(-c2cc(CC=C)cc(CN(CCCC)CCCC)c2O)c1 | 8.2 | 
C=CCc1cc(-c2cc(CC=C)c(O)c(C(c3ccc(Cl)cc3)N3CCOCC3)c2)c(O)c(C(c2ccc(Cl)cc2)N2CCOCC2)c1 (stereo not drawn) | 80.1 | viability at 64 µM [4]: > 80%
C=CCc1cc(CN2CCCCC2C)c(O)c(-c2cc(CC=C)c(O)c(CN3CCCCC3C)c2)c1 (stereo not drawn) | 3.33 | 
C=CCc1cc(CN(CCCC)CCCC)c(O)c(-c2cc(CC=C)c(O)c(CN(CCCC)CCCC)c2)c1 | 4.7 | 
C=CCc1ccc(O)c(-c2ccc(O)c(CC=C)c2)c1 | 30.6 | 
C=CCc1ccc(O)c(-c2cc(CC=C)cc(CN3CCC(C)CC3)c2O)c1 | 6.3 | 
C=CCc1cc(-c2ccc(O)c(CC=C)c2)c(O)c(C(c2ccc(Cl)cc2)N2CCCCC2)c1 (stereo not drawn) | 45 | 

SMILES | inhibition [1] [%] | also measured
C=CCc1ccc(O)c(-c2cc(CC=C)cc(CN(CCC)CCC)c2O)c1 | 6.3 | 
C=CCc1cc(-c2ccc(O)c(CC=C)c2)c(O)c(C(c2ccc(OC)cc2)N2CCOCC2)c1 (stereo not drawn) | 6.2 | 
C=CCc1ccc(O)c(-c2cc(CC=C)cc(CN(CC(C)C)CC(C)C)c2O)c1 | 3.8 | 
C=CCc1cc(CN(C)c2ccccc2)c(O)c(-c2cc(CC=C)c(O)c(CN(C)c3ccccc3)c2)c1 | 63 | 
C=CCc1cc(CN(CCC)CCC)c(O)c(-c2cc(CC=C)c(O)c(CN(CCC)CCC)c2)c1 | 4.8 | 
C=CCc1cc(-c2ccc(O)c(CC=C)c2)c(O)c(C(c2ccc(Cl)cc2)N2CCCC2)c1 (stereo not drawn) | 40.6 | 
C=CCc1cc(-c2ccc(O)c(CC=C)c2)c(O)c(C(c2ccc(Cl)cc2)N2CCC(C)CC2)c1 (stereo not drawn) | 8.6 | 
C=CCc1cc(-c2ccc(O)c(CC=C)c2)c(O)c(C(c2ccc(OC)cc2)N2CCCCC2)c1 (stereo not drawn) | 85 | viability at 64 µM [4]: > 80%
C[C@H]1O[C@H](O[C@H]2[C@H](O)[C@@H](O)[C@@H](O[C@H]3[C@H](O)[C@@H](O)C(O)O[C@@H]3CO)O[C@@H]2CO)[C@H](O)[C@@H](O)[C@@H]1N[C@H]1C=C(CO)[C@@H](O)[C@H](O)[C@H]1O (stereo partly drawn) | 99 | inhibition [5]: Active
C=CCc1cc(CN2CCCC2)c(O)c(-c2cc(CC=C)c(O)c(CN3CCCC3)c2)c1 | 4.7 | 
C=CCc1cc(-c2ccc(O)c(CC=C)c2)c(O)c(C(c2cc(Cl)cc(Cl)c2)N2CCC(C)CC2)c1 (stereo not drawn) | 97.5 | inhibition [2]: Active; inhibition [3]: Active; viability at 64 µM [4]: > 80%
C=CCc1cc(CN(C)C(C)C)c(O)c(-c2cc(CC=C)c(O)c(CN(C)C(C)C)c2)c1 | 4.1 | 
C=CCc1ccc(O)c(-c2cc(CC=C)ccc2O)c1 | 9.6 | 
C=CCc1cc(-c2ccc(O)c(CC=C)c2)c(O)c(C(c2cc(Cl)cc(Cl)c2)N2CCCCC2)c1 (stereo not drawn) | 87.7 | viability at 64 µM [4]: > 80%
C=CCc1cc(-c2ccc(O)c(CC=C)c2)c(O)c(C(c2cc(OC)c(OC)c(OC)c2)N2CCCCC2)c1 (stereo not drawn) | 56.4 | 
C=CCc1cc(-c2ccc(O)c(CC=C)c2)c(O)c(C(c2ccccc2)N2CCCCC2)c1 (stereo not drawn) | 13.6 | 
